# From patent US20120316199A1, “COMPOSITIONS AND METHODS FOR TREATING, CONTROLLING, REDUCING, OR AMELIORATING INFLAMMATORY PAIN” (priority 2011, published 2012)
# Tested on: intraocular pressure (IOP)
# Test: Intraocular pressure in New Zealand White rabbits, topical dosing four times daily
# Format: in vivo
# Details: for Intraocular Pressure, MEAN: A.M. readings
# Description: On Days 1-31, animals received daily topical doses of the appropriate test article into the right eye. Animals were dosed four times per day, with doses administered 2 hours apart. Doses were administered using a calibrated 50-μL pipette. The eyelids were held close for 10 seconds immediately following dosing. The time of each dose administration was recorded.
# Intraocular pressure (“IOP”) was determined for both eyes of each animal on Days 3, 5, 10, 12, 16, 18, 22, 24, 26, 30, and 32. IOP was evaluated with a Medtronic Solan, Model 30 classic pneumatonometer. Proparacaine hydrochloride 0.5% (1 drop) was delivered to each eye prior to IOP measurement. IOP was measured on Monday. Wednesday, and Friday of each week. A two-point diurnal curve was established: IOP was recorded at 8 a.m. and 12 p.m. on Day 3, and at 8 a.m. and 2 p.m. on later days, with a ±1 hour range for each of these times. The time of the measurements was recorded.
# Descriptive statistics were prepared for IOP data of each treatment group (left and right eyes separately) at each measurement interval. The statistics included the number of observations (“N”) mean, standard deviation (“STD”), and standard error (“SEM”). Statistical analyses were conducted on IOP results using Statistical Analysis Systems (SAS Institute. Inc., Cary, N.C. V8.0). Parameters were evaluated using analysis of variance/GLM Procedure followed by Tukey's Standardized Range Test (Tukey, 1985) for post hoc comparisons of group means. The level of significance was set at a probability of p<0.05 for all statistical procedures. Group IOP means were compared at each interval, with left and right eyes compared separately.
smiles,measurement,setting,value
"Cc1ccc2c(NC[C@](O)(CC(C)(C)c3cc(F)cc4c3OCC4)C(F)(F)F)cccc2n1 [BOL-303242-X, mapracorat]",Differences in mean IOP versus BSS group,"BOL-303242-X groups B-D (10, 5, 1 mg/g), p<0.05",No statistically significant (p<0.05) differences
same,Effect of daily dosing on IOP compared to daily dosing with dexamethasone,"BOL-303242-X suspensions 0.05, 0.25, 0.5 mg/dose, four times daily up to 31 days",did not increase IOP
same,Course of mean IOP after treatment began,"left and right eyes, dexamethasone 0.1% (Group A), BOL-303242-X 10, 5, 1 mg/g (Groups B-D), four times daily",not seen
same,"Intraocular Pressure, MEAN","treated right eyes, Day 3, 1 mg/g (Group D)",23.0 mmHg
same,"Intraocular Pressure, MEAN","treated right eyes, Day 3, 5 mg/g (Group C)",23.7 mmHg
same,"Intraocular Pressure, MEAN","treated right eyes, Day 3, 10 mg/g (Group B)",22.7 mmHg
same,"Intraocular Pressure, MEAN","treated right eyes, Day 5, 1 mg/g (Group D)",24.7 mmHg
same,"Intraocular Pressure, MEAN","treated right eyes, Day 5, 5 mg/g (Group C)",24.7 mmHg
same,"Intraocular Pressure, MEAN","treated right eyes, Day 5, 10 mg/g (Group B)",23.8 mmHg
same,"Intraocular Pressure, MEAN","treated right eyes, Day 10, 1 mg/g (Group D)",24.8 mmHg
same,"Intraocular Pressure, MEAN","treated right eyes, Day 10, 5 mg/g (Group C)",25.2 mmHg
same,"Intraocular Pressure, MEAN","treated right eyes, Day 10, 10 mg/g (Group B)",24.5 mmHg
same,"Intraocular Pressure, MEAN","treated right eyes, Day 12, 1 mg/g (Group D)",23.4 mmHg
same,"Intraocular Pressure, MEAN","treated right eyes, Day 12, 5 mg/g (Group C)",25.0 mmHg
same,"Intraocular Pressure, MEAN","treated right eyes, Day 12, 10 mg/g (Group B)",23.9 mmHg
same,"Intraocular Pressure, MEAN","treated right eyes, Day 16, 1 mg/g (Group D)",22.1 mmHg
same,"Intraocular Pressure, MEAN","treated right eyes, Day 16, 5 mg/g (Group C)",24.3 mmHg
same,"Intraocular Pressure, MEAN","treated right eyes, Day 16, 10 mg/g (Group B)",23.4 mmHg
same,"Intraocular Pressure, MEAN","treated right eyes, Day 18, 1 mg/g (Group D)",23.7 mmHg
same,"Intraocular Pressure, MEAN","treated right eyes, Day 18, 5 mg/g (Group C)",23.9 mmHg
same,"Intraocular Pressure, MEAN","treated right eyes, Day 18, 10 mg/g (Group B)",22.3 mmHg
same,"Intraocular Pressure, MEAN","treated right eyes, Day 22, 1 mg/g (Group D)",23.2 mmHg
same,"Intraocular Pressure, MEAN","treated right eyes, Day 22, 5 mg/g (Group C)",22.4 mmHg
same,"Intraocular Pressure, MEAN","treated right eyes, Day 22, 10 mg/g (Group B)",22.4 mmHg
same,"Intraocular Pressure, MEAN","treated right eyes, Day 24, 1 mg/g (Group D)",22.1 mmHg
same,"Intraocular Pressure, MEAN","treated right eyes, Day 24, 5 mg/g (Group C)",23.8 mmHg
same,"Intraocular Pressure, MEAN","treated right eyes, Day 24, 10 mg/g (Group B)",21.2 mmHg
same,"Intraocular Pressure, MEAN","treated right eyes, Day 26, 1 mg/g (Group D)",23.1 mmHg
same,"Intraocular Pressure, MEAN","treated right eyes, Day 26, 5 mg/g (Group C)",22.1 mmHg
same,"Intraocular Pressure, MEAN","treated right eyes, Day 26, 10 mg/g (Group B)",21.8 mmHg
same,"Intraocular Pressure, MEAN","treated right eyes, Day 30, 1 mg/g (Group D)",24.2 mmHg
same,"Intraocular Pressure, MEAN","treated right eyes, Day 30, 5 mg/g (Group C)",22.9 mmHg
same,"Intraocular Pressure, MEAN","treated right eyes, Day 30, 10 mg/g (Group B)",22.7 mmHg
same,"Intraocular Pressure, MEAN","treated right eyes, Day 32, 1 mg/g (Group D)",24.9 mmHg
same,"Intraocular Pressure, MEAN","treated right eyes, Day 32, 5 mg/g (Group C)",23.4 mmHg
same,"Intraocular Pressure, MEAN","treated right eyes, Day 32, 10 mg/g (Group B)",23.9 mmHg
same,"Intraocular Pressure, MEAN","treated right eyes, Pre-Study, 1 mg/g (Group D)",24.4 mmHg
same,"Intraocular Pressure, MEAN","treated right eyes, Pre-Study, 5 mg/g (Group C)",24.8 mmHg
same,"Intraocular Pressure, MEAN","treated right eyes, Pre-Study, 10 mg/g (Group B)",24.0 mmHg
same,"Intraocular Pressure, MEAN","untreated left eyes, Day 3, 1 mg/g (Group D)",23.5 mmHg
same,"Intraocular Pressure, MEAN","untreated left eyes, Day 3, 5 mg/g (Group C)",23.8 mmHg
same,"Intraocular Pressure, MEAN","untreated left eyes, Day 3, 10 mg/g (Group B)",23.3 mmHg
same,"Intraocular Pressure, MEAN","untreated left eyes, Day 5, 1 mg/g (Group D)",24.4 mmHg
same,"Intraocular Pressure, MEAN","untreated left eyes, Day 5, 5 mg/g (Group C)",24.4 mmHg
same,"Intraocular Pressure, MEAN","untreated left eyes, Day 5, 10 mg/g (Group B)",23.4 mmHg
same,"Intraocular Pressure, MEAN","untreated left eyes, Day 10, 1 mg/g (Group D)",24.5 mmHg
same,"Intraocular Pressure, MEAN","untreated left eyes, Day 10, 5 mg/g (Group C)",24.6 mmHg
same,"Intraocular Pressure, MEAN","untreated left eyes, Day 10, 10 mg/g (Group B)",24.0 mmHg
same,"Intraocular Pressure, MEAN","untreated left eyes, Day 12, 1 mg/g (Group D)",22.2 mmHg
same,"Intraocular Pressure, MEAN","untreated left eyes, Day 12, 5 mg/g (Group C)",23.8 mmHg
same,"Intraocular Pressure, MEAN","untreated left eyes, Day 12, 10 mg/g (Group B)",23.8 mmHg
